A word on the IC50: it is the concentration that gives 50% inhibition. A higher IC50 goes with lower potency.

The structures appear in SMILES notation. Some results are limits rather than exact numbers.

One experiment concerns the target T1, Prostaglandin G/H synthase 2 (Homo sapiens, UniProt P35354).
T1 sequence (P35354 whole entry): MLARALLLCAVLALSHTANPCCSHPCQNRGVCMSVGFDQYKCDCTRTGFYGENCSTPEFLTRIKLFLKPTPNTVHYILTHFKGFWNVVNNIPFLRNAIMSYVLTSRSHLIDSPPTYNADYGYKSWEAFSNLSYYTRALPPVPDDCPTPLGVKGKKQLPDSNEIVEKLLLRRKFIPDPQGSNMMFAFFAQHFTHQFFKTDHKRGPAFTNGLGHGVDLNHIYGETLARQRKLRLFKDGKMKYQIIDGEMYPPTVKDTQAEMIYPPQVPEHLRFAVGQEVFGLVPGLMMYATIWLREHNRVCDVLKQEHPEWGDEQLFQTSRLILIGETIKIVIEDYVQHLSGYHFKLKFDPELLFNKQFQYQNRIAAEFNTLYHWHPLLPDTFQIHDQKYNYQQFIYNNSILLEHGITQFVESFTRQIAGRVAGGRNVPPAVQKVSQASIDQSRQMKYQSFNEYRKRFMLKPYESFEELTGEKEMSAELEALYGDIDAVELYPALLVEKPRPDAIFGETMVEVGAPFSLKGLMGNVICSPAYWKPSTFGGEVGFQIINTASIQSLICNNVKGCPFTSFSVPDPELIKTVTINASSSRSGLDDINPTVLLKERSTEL
Turning to `COC(=O)[C@@H](C)NC(=O)Cc1c(C)n(C(=O)c2ccc(Cl)cc2)c2ccc(OC)cc12`, 0.4 µM corresponded to half-maximal inhibition (IC50).

The molecule `COc1ccc2c(c1)c(CC(=O)Nc1cccnc1Cl)c(C)n2C(=O)c1ccc(Cl)cc1` displayed a 50% inhibitory concentration (IC50) of 0.05 µM.

Consider `COc1ccc2c(c1)c(CC(=O)NOCc1ccc([N+](=O)[O-])cc1)c(C)n2C(=O)c1ccc(Cl)cc1`, for which half-maximal inhibition (IC50) required 0.06 µM.

With `CCN(CC)C(=O)Cc1c(C)n(C(=O)c2ccc(Cl)cc2)c2ccc(OC)cc12`, the IC50 was 25 µM.

For `COc1ccc2c(c1)c(CC(=O)Nc1ccc(C(N)=O)cc1)c(C)n2C(=O)c1ccc(Cl)cc1`, the IC50 was 0.14 µM.

Regarding `COc1ccc2c(c1)c(CC(=O)Nc1cc(OC)c(OC)c(OC)c1)c(C)n2C(=O)c1ccc(Cl)cc1`, the IC50 is more than 1 µM.

For the molecule `COc1ccc2c(c1)c(CC(=O)NOCc1ccccc1)c(C)n2C(=O)c1ccc(Cl)cc1`, the half-inhibitory concentration (IC50) is 0.05 µM.

Molecule `COc1ccc2c(c1)c(CC(=O)OCCNC(=O)OC(C)(C)C)c(C)n2C(=O)c1ccc(Cl)cc1` returned an IC50 of 0.045 µM.

`COc1ccc2c(c1)c(CC(=O)OCCc1ccccc1)cn2C(=O)c1ccc(Cl)cc1` came in with an IC50 of more than 66 µM.

With `COc1ccc2c(c1)c(CC(=O)OCCc1ccccc1)c(C)n2C(=O)c1ccc(Cl)cc1`, the IC50 stood at 0.04 µM.

For `COc1ccc2c(c1)c(CC(=O)NNCc1ccccc1)c(C)n2C(=O)c1ccc(Cl)cc1`, the IC50 is 2.5 µM.

Molecule `COc1ccc2c(c1)c(CC(=O)Oc1cccc3ccccc13)c(C)n2C(=O)c1ccc(Cl)cc1` registered an IC50 of 5 µM.

In turn, `COc1ccc2c(c1)c(CC(=O)NCCc1ccccc1)cn2C(=O)c1ccc(Cl)cc1` displayed an IC50 of more than 66 µM.

`COc1ccc2c(c1)c(CC(=O)Nc1cc(C)c(C(=O)Nc3ccccc3)cc1OC)c(C)n2C(=O)c1ccc(Cl)cc1` showed an IC50 of 0.6 µM.

With `COc1ccc2c(c1)c(CC(=O)Nc1cncc(Cl)c1)c(C)n2C(=O)c1ccc(Cl)cc1`, the IC50 came to 0.047 µM.

For `COc1ccc2c(c1)c(CC(=O)N1CCOCC1)c(C)n2C(=O)c1ccc(Cl)cc1` [INDOMETHACIN MORPHOLINYLAMIDE], the IC50 was more than 33 µM.

In another experiment the target is T2, Prostaglandin G/H synthase 1 (Ovis aries, UniProt P05979).
T2 sequence (P05979 whole entry): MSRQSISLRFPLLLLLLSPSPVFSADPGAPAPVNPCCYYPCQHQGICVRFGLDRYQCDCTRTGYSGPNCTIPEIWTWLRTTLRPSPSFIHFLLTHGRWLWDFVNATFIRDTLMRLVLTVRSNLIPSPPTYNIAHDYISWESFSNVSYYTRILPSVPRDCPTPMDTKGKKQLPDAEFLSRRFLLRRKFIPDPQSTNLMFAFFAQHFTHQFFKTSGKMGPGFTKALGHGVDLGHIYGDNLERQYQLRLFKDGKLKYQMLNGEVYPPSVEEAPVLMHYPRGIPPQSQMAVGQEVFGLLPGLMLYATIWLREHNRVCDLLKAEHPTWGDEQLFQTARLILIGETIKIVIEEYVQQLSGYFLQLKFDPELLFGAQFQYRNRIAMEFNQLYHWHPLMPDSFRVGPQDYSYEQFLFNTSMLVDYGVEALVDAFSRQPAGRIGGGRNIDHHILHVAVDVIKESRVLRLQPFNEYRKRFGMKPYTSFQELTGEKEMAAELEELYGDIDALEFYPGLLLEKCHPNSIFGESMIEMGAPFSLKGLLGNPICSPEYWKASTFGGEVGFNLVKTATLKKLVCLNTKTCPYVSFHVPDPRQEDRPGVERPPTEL
`COc1ccc2c(c1)c(CC(=O)Nc1cccnc1Cl)c(C)n2C(=O)c1ccc(Cl)cc1` showed an IC50 of 45 µM.

Molecule `COc1ccc2c(c1)c(CC(=O)NOCc1ccc([N+](=O)[O-])cc1)c(C)n2C(=O)c1ccc(Cl)cc1` yielded an IC50 of 4 µM. This IC50 lies about 11-fold lower than the previous one.

Molecule `CCN(CC)C(=O)Cc1c(C)n(C(=O)c2ccc(Cl)cc2)c2ccc(OC)cc12` displayed an IC50 of more than 66 µM.

Regarding `COc1ccc2c(c1)c(CC(=O)Nc1ccc(C(N)=O)cc1)c(C)n2C(=O)c1ccc(Cl)cc1`, the IC50 was more than 66 µM.

Take `COc1ccc2c(c1)c(CC(=O)Nc1cc(OC)c(OC)c(OC)c1)c(C)n2C(=O)c1ccc(Cl)cc1`: the IC50 was more than 66 µM.

As for `COc1ccc2c(c1)c(CC(=O)NOCc1ccccc1)c(C)n2C(=O)c1ccc(Cl)cc1`, the IC50 turned out to be 0.06 µM.

`COc1ccc2c(c1)c(CC(=O)OCCNC(=O)OC(C)(C)C)c(C)n2C(=O)c1ccc(Cl)cc1` came in with an IC50 of more than 66 µM.

Consider `COc1ccc2c(c1)c(CC(=O)NCCOC(=O)/C=C/c1ccc(N(C)C)cc1)c(C)n2C(=O)c1ccc(Cl)cc1`, for which the IC50 was more than 66 µM.

Take `COc1ccc2c(c1)c(CC(=O)OCCc1ccccc1)cn2C(=O)c1ccc(Cl)cc1`: the IC50 is more than 66 µM.

In turn, `COc1ccc2c(c1)c(CC(=O)NNCc1ccccc1)c(C)n2C(=O)c1ccc(Cl)cc1` had an IC50 of more than 66 µM.

Molecule `COc1ccc2c(c1)c(CC(=O)Oc1cccc3ccccc13)c(C)n2C(=O)c1ccc(Cl)cc1` showed a half-maximal inhibitory concentration (IC50) of more than 66 µM.

Turning to `COc1ccc2c(c1)c(CC(=O)NCCc1ccccc1)cn2C(=O)c1ccc(Cl)cc1`, the concentration for half-maximal inhibition (IC50) was more than 66 µM.

`COc1ccc2c(c1)c(CC(=O)Nc1cc(C)c(C(=O)Nc3ccccc3)cc1OC)c(C)n2C(=O)c1ccc(Cl)cc1` returned an IC50 of 17 µM. This lies in the double-digit micromolar range.

Molecule `COc1ccc2c(c1)c(CC(=O)Nc1ncc(C)s1)c(C)n2C(=O)c1ccc(Cl)cc1` came in with an IC50 of more than 66 µM.

In turn, `COc1ccc2c(c1)c(CC(=O)N(C)C)c(C)n2C(=O)c1ccc(Cl)cc1` had an IC50 of more than 66 µM.

For `COc1ccc2c(c1)c(CC(=O)Nc1cncc(Cl)c1)c(C)n2C(=O)c1ccc(Cl)cc1`, the IC50 is more than 66 µM.

Take `COc1ccc2c(c1)c(CC(=O)N1CCOCC1)c(C)n2C(=O)c1ccc(Cl)cc1` [INDOMETHACIN MORPHOLINYLAMIDE]: the IC50 was more than 66 µM.

The record behind these values is ChEMBL document CHEMBL1133457 (J Med Chem, 2000).
